Measurements reported in ChEMBL document CHEMBL3045835, “Comparative study of conventional and microwave-assisted synthesis of some Schiff bases and their potential as antimicrobial agents” (2012).
Converted amounts (≈) assume the structure as drawn.

Legend:
Assay type in all cases: functional
Staphylococcus aureus [1] = test: Antibacterial activity against Staphylococcus aureus MTCC 1430 at 100 ug/ml after 18 hr by cup-plate method; details: MTCC 1430, 18 h, read-out: DIZ
Penicillium chrysogenum [2] = test: Antifungal activity against Penicillium chrysogenum MTCC 161 at 200 ug/ml after 18 hr by cup-plate method; details: MTCC 161, 18 h, read-out: DIZ
Bacillus subtilis [3] = test: Antibacterial activity against Bacillus subtilis MTCC 441 at 200 ug/ml after 18 hr by cup plate method; details: MTCC 441, 18 h, read-out: DIZ
Staphylococcus aureus [4] = test: Antibacterial activity against Staphylococcus aureus MTCC 1430 at 1500 ug/ml after 18 hr by cup-plate method; details: MTCC 1430, 18 h, read-out: DIZ
Aspergillus niger [5] = test: Antifungal activity against Aspergillus niger MTCC 2546 at 1500 ug/ml after 18 hr by cup-plate method; details: MTCC 2546, 18 h, read-out: DIZ
Pseudomonas fluorescens [6] = test: Antibacterial activity against Pseudomonas fluorescens MTCC 2421 after 24 hr by broth dilution method; details: MTCC 2421, 24 h
Penicillium chrysogenum [7] = test: Antifungal activity against Penicillium chrysogenum MTCC 161 at 500 ug/ml after 18 hr by cup-plate method; details: MTCC 161, 18 h, read-out: DIZ
Aspergillus niger [8] = test: Antifungal activity against Aspergillus niger MTCC 2546 after 24 hr by broth dilution method; details: MTCC 2546, 24 h
Penicillium chrysogenum [9] = test: Antifungal activity against Penicillium chrysogenum MTCC 161 at 1500 ug/ml after 18 hr by cup-plate method; details: MTCC 161, 18 h, read-out: DIZ
Bacillus pumilus [10] = test: Antibacterial activity against Bacillus pumilus MTCC 1456 at 200 ug/ml after 18 hr by cup-plate method; details: MTCC 1456, 18 h, read-out: DIZ
Bacillus pumilus [11] = test: Antibacterial activity against Bacillus pumilus MTCC 1456 at 100 ug/ml after 18 hr by cup-plate method; details: MTCC 1456, 18 h, read-out: DIZ
Escherichia coli [12] = test: Antibacterial activity against Escherichia coli MTCC 1573 after 24 hr by broth dilution method; details: MTCC 1573, 24 h
Penicillium chrysogenum [13] = test: Antifungal activity against Penicillium chrysogenum MTCC 161 at 1000 ug/ml after 18 hr by cup-plate method; details: MTCC 161, 18 h, read-out: DIZ
Bacillus pumilus [14] = test: Antibacterial activity against Bacillus pumilus MTCC 1456 after 24 hr by broth dilution method; details: MTCC 1456, 24 h
Aspergillus niger [15] = test: Antifungal activity against Aspergillus niger MTCC 2546 at 100 ug/ml after 18 hr by cup-plate method; details: MTCC 2546, 18 h, read-out: DIZ
Escherichia coli [16] = test: Antibacterial activity against Escherichia coli MTCC 1573 at 500 ug/ml after 18 hr by cup-plate method; details: MTCC 1573, 18 h, read-out: DIZ
Bacillus subtilis [17] = test: Antibacterial activity against Bacillus subtilis MTCC 441 at 500 ug/ml after 18 hr by cup plate method; details: MTCC 441, 18 h, read-out: DIZ
Bacillus subtilis [18] = test: Antibacterial activity against Bacillus subtilis MTCC 441 after 24 hr by broth dilution method; details: MTCC 441, 24 h
Pseudomonas aeruginosa [19] = test: Antibacterial activity against Pseudomonas aeruginosa MTCC 424 after 24 hr by broth dilution method; details: MTCC 424, 24 h
Aspergillus niger [20] = test: Antifungal activity against Aspergillus niger MTCC 2546 at 1000 ug/ml after 18 hr by cup-plate method; details: MTCC 2546, 18 h, read-out: DIZ
Pseudomonas fluorescens [21] = test: Antibacterial activity against Pseudomonas fluorescens MTCC 2421 at 1000 ug/ml after 18 hr by cup-plate method; details: MTCC 2421, 18 h, read-out: DIZ
Penicillium chrysogenum [22] = test: Antifungal activity against Penicillium chrysogenum MTCC 161 after 24 hr by broth dilution method; details: MTCC 161, 24 h
Micrococcus luteus [23] = test: Antibacterial activity against Micrococcus luteus MTCC 1538 at 1500 ug/ml after 18 hr by cup-plate method; details: MTCC 1538, 18 h, read-out: DIZ
Bacillus subtilis [24] = test: Antibacterial activity against Bacillus subtilis MTCC 441 at 1500 ug/ml after 18 hr by cup plate method; details: MTCC 441, 18 h, read-out: DIZ
Bacillus pumilus [25] = test: Antibacterial activity against Bacillus pumilus MTCC 1456 at 1000 ug/ml after 18 hr by cup-plate method; details: MTCC 1456, 18 h, read-out: DIZ
Bacillus pumilus [26] = test: Antibacterial activity against Bacillus pumilus MTCC 1456 at 1500 ug/ml after 18 hr by cup-plate method; details: MTCC 1456, 18 h, read-out: DIZ
Pseudomonas aeruginosa [27] = test: Antibacterial activity against Pseudomonas aeruginosa MTCC 424 at 1500 ug/ml after 18 hr by cup-plate method; details: MTCC 424, 18 h, read-out: DIZ
Micrococcus luteus [28] = test: Antibacterial activity against Micrococcus luteus MTCC 1538 after 24 hr by broth dilution method; details: MTCC 1538, 24 h
Bacillus subtilis [29] = test: Antibacterial activity against Bacillus subtilis MTCC 441 at 1000 ug/ml after 18 hr by cup plate method; details: MTCC 441, 18 h, read-out: DIZ
Micrococcus luteus [30] = test: Antibacterial activity against Micrococcus luteus MTCC 1538 at 200 ug/ml after 18 hr by cup-plate method; details: MTCC 1538, 18 h, read-out: DIZ
Pseudomonas fluorescens [31] = test: Antibacterial activity against Pseudomonas fluorescens MTCC 2421 at 1500 ug/ml after 18 hr by cup-plate method; details: MTCC 2421, 18 h, read-out: DIZ
Pseudomonas fluorescens [32] = test: Antibacterial activity against Pseudomonas fluorescens MTCC 2421 at 500 ug/ml after 18 hr by cup-plate method; details: MTCC 2421, 18 h, read-out: DIZ
Pseudomonas fluorescens [33] = test: Antibacterial activity against Pseudomonas fluorescens MTCC 2421 at 200 ug/ml after 18 hr by cup-plate method; details: MTCC 2421, 18 h, read-out: DIZ
Pseudomonas aeruginosa [34] = test: Antibacterial activity against Pseudomonas aeruginosa MTCC 424 at 1000 ug/ml after 18 hr by cup-plate method; details: MTCC 424, 18 h, read-out: DIZ
Penicillium chrysogenum [35] = test: Antifungal activity against Penicillium chrysogenum MTCC 161 at 100 ug/ml after 18 hr by cup-plate method; details: MTCC 161, 18 h, read-out: DIZ
Escherichia coli [36] = test: Antibacterial activity against Escherichia coli MTCC 1573 at 200 ug/ml after 18 hr by cup-plate method; details: MTCC 1573, 18 h, read-out: DIZ
Escherichia coli [37] = test: Antibacterial activity against Escherichia coli MTCC 1573 at 1500 ug/ml after 18 hr by cup-plate method; details: MTCC 1573, 18 h, read-out: DIZ
Micrococcus luteus [38] = test: Antibacterial activity against Micrococcus luteus MTCC 1538 at 1000 ug/ml after 18 hr by cup-plate method; details: MTCC 1538, 18 h, read-out: DIZ
Pseudomonas aeruginosa [39] = test: Antibacterial activity against Pseudomonas aeruginosa MTCC 424 at 200 ug/ml after 18 hr by cup-plate method; details: MTCC 424, 18 h, read-out: DIZ
Escherichia coli [40] = test: Antibacterial activity against Escherichia coli MTCC 1573 at 1000 ug/ml after 18 hr by cup-plate method; details: MTCC 1573, 18 h, read-out: DIZ
Staphylococcus aureus [41] = test: Antibacterial activity against Staphylococcus aureus MTCC 1430 at 500 ug/ml after 18 hr by cup-plate method; details: MTCC 1430, 18 h, read-out: DIZ
Pseudomonas fluorescens [42] = test: Antibacterial activity against Pseudomonas fluorescens MTCC 2421 at 100 ug/ml after 18 hr by cup-plate method; details: MTCC 2421, 18 h, read-out: DIZ
Aspergillus niger [43] = test: Antifungal activity against Aspergillus niger MTCC 2546 at 500 ug/ml after 18 hr by cup-plate method; details: MTCC 2546, 18 h, read-out: DIZ
Aspergillus niger [44] = test: Antifungal activity against Aspergillus niger MTCC 2546 at 200 ug/ml after 18 hr by cup-plate method; details: MTCC 2546, 18 h, read-out: DIZ
Bacillus subtilis [45] = test: Antibacterial activity against Bacillus subtilis MTCC 441 at 100 ug/ml after 18 hr by cup plate method; details: MTCC 441, 18 h, read-out: DIZ
Pseudomonas aeruginosa [46] = test: Antibacterial activity against Pseudomonas aeruginosa MTCC 424 at 100 ug/ml after 18 hr by cup-plate method; details: MTCC 424, 18 h, read-out: DIZ
Bacillus pumilus [47] = test: Antibacterial activity against Bacillus pumilus MTCC 1456 at 500 ug/ml after 18 hr by cup-plate method; details: MTCC 1456, 18 h, read-out: DIZ
Micrococcus luteus [48] = test: Antibacterial activity against Micrococcus luteus MTCC 1538 at 500 ug/ml after 18 hr by cup-plate method; details: MTCC 1538, 18 h, read-out: DIZ
Pseudomonas aeruginosa [49] = test: Antibacterial activity against Pseudomonas aeruginosa MTCC 424 at 500 ug/ml after 18 hr by cup-plate method; details: MTCC 424, 18 h, read-out: DIZ
Escherichia coli [50] = test: Antibacterial activity against Escherichia coli MTCC 1573 at 100 ug/ml after 18 hr by cup-plate method; details: MTCC 1573, 18 h, read-out: DIZ
Staphylococcus aureus [51] = test: Antibacterial activity against Staphylococcus aureus MTCC 1430 after 24 hr by broth dilution method; details: MTCC 1430, 24 h
Staphylococcus aureus [52] = test: Antibacterial activity against Staphylococcus aureus MTCC 1430 at 200 ug/ml after 18 hr by cup-plate method; details: MTCC 1430, 18 h, read-out: DIZ
Micrococcus luteus [53] = test: Antibacterial activity against Micrococcus luteus MTCC 1538 at 100 ug/ml after 18 hr by cup-plate method; details: MTCC 1538, 18 h, read-out: DIZ
Staphylococcus aureus [54] = test: Antibacterial activity against Staphylococcus aureus MTCC 1430 at 1000 ug/ml after 18 hr by cup-plate method; details: MTCC 1430, 18 h, read-out: DIZ

O=c1c(/C=N/c2ccc(Cl)cc2)coc2ccccc12
zone of inhibition at 100 µg/mL (Staphylococcus aureus [1]): 12 mm
zone of inhibition at 200 µg/mL (Penicillium chrysogenum [2]): 17 mm
zone of inhibition at 200 µg/mL (Bacillus subtilis [3]): 15 mm
zone of inhibition at 1500 µg/mL (Staphylococcus aureus [4]): 21 mm
zone of inhibition at 1500 µg/mL (Aspergillus niger [5]): 21 mm
MIC (Pseudomonas fluorescens [6]): 300 µg/mL (≈ 1060 µM)
zone of inhibition at 500 µg/mL (Penicillium chrysogenum [7]): 19 mm
MIC (Aspergillus niger [8]): 200 µg/mL (≈ 705 µM)
zone of inhibition at 1500 µg/mL (Penicillium chrysogenum [9]): 21 mm
zone of inhibition at 200 µg/mL (Bacillus pumilus [10]): 15 mm
zone of inhibition at 100 µg/mL (Bacillus pumilus [11]): 12 mm
MIC (Escherichia coli [12]): 400 µg/mL (≈ 1410 µM)
zone of inhibition at 1000 µg/mL (Penicillium chrysogenum [13]): 20 mm
MIC (Bacillus pumilus [14]): 200 µg/mL (≈ 705 µM)
zone of inhibition at 100 µg/mL (Aspergillus niger [15]): 16 mm
zone of inhibition at 500 µg/mL (Escherichia coli [16]): 17 mm
zone of inhibition at 500 µg/mL (Bacillus subtilis [17]): 17 mm
MIC (Bacillus subtilis [18]): 300 µg/mL (≈ 1060 µM)
MIC (Pseudomonas aeruginosa [19]): 200 µg/mL (≈ 705 µM)
zone of inhibition at 1000 µg/mL (Aspergillus niger [20]): 20 mm
zone of inhibition at 1000 µg/mL (Pseudomonas fluorescens [21]): 16 mm
MIC (Penicillium chrysogenum [22]): 200 µg/mL (≈ 705 µM)
zone of inhibition at 1500 µg/mL (Micrococcus luteus [23]): 24 mm
zone of inhibition at 1500 µg/mL (Bacillus subtilis [24]): 21 mm
zone of inhibition at 1000 µg/mL (Bacillus pumilus [25]): 18 mm
zone of inhibition at 1500 µg/mL (Bacillus pumilus [26]): 19 mm
zone of inhibition at 1500 µg/mL (Pseudomonas aeruginosa [27]): 21 mm
MIC (Micrococcus luteus [28]): 200 µg/mL (≈ 705 µM)
zone of inhibition at 1000 µg/mL (Bacillus subtilis [29]): 19 mm
zone of inhibition at 200 µg/mL (Micrococcus luteus [30]): 19 mm
zone of inhibition at 1500 µg/mL (Pseudomonas fluorescens [31]): 18 mm
zone of inhibition at 500 µg/mL (Pseudomonas fluorescens [32]): 14 mm
zone of inhibition at 200 µg/mL (Pseudomonas fluorescens [33]): 12 mm
zone of inhibition at 1000 µg/mL (Pseudomonas aeruginosa [34]): 20 mm
zone of inhibition at 100 µg/mL (Penicillium chrysogenum [35]): 15 mm
zone of inhibition at 200 µg/mL (Escherichia coli [36]): 16 mm
zone of inhibition at 1500 µg/mL (Escherichia coli [37]): 20 mm
zone of inhibition at 1000 µg/mL (Micrococcus luteus [38]): 23 mm
zone of inhibition at 200 µg/mL (Pseudomonas aeruginosa [39]): 18 mm
zone of inhibition at 1000 µg/mL (Escherichia coli [40]): 19 mm
zone of inhibition at 500 µg/mL (Staphylococcus aureus [41]): 16 mm
zone of inhibition at 100 µg/mL (Pseudomonas fluorescens [42]): 11 mm
zone of inhibition at 500 µg/mL (Aspergillus niger [43]): 19 mm
zone of inhibition at 200 µg/mL (Aspergillus niger [44]): 18 mm
zone of inhibition at 100 µg/mL (Bacillus subtilis [45]): 13 mm
zone of inhibition at 100 µg/mL (Pseudomonas aeruginosa [46]): 16 mm
zone of inhibition at 500 µg/mL (Bacillus pumilus [47]): 17 mm
zone of inhibition at 500 µg/mL (Micrococcus luteus [48]): 21 mm
zone of inhibition at 500 µg/mL (Pseudomonas aeruginosa [49]): 19 mm
zone of inhibition at 100 µg/mL (Escherichia coli [50]): 13 mm
MIC (Staphylococcus aureus [51]): 300 µg/mL (≈ 1060 µM)
zone of inhibition at 200 µg/mL (Staphylococcus aureus [52]): 14 mm
zone of inhibition at 100 µg/mL (Micrococcus luteus [53]): 16 mm
zone of inhibition at 1000 µg/mL (Staphylococcus aureus [54]): 18 mm
